From article PMC7142633, “Impact of B-Ring Substitution and Acylation with Hydroxy Cinnamic Acids on the Inhibition of Porcine α-Amylase by Anthocyanin-3-Glycosides” (Foods, 2020)
Like-named read-outs stand apart in the source and are kept apart here. Marks after values point to notes of the source that are not given here.

Tests used:
[1] = biological target: T1, α-amylase from porcine pancreas (Sus scrofa, UniProt P00690); assay: α-amylase enzyme activity assay, GalG2CNP conversion, UV/Vis detection of CNP at 405 nm; assay type: biochemical; conditions: for IC50: read-out: IC50 (Cheng−Prussoff, Equation (9)); for Kmapp / vmaxapp: Michaelis Menten fit
T1 construct: A saline suspension of α-amylase from porcine pancreas; purchased Sigma Aldrich (Steinheim, Germany) Lot #SLBN9170V (catalogue number not given); host or cells: porcine pancreas (tissue-derived)
T1 sequence (P00690 16-511): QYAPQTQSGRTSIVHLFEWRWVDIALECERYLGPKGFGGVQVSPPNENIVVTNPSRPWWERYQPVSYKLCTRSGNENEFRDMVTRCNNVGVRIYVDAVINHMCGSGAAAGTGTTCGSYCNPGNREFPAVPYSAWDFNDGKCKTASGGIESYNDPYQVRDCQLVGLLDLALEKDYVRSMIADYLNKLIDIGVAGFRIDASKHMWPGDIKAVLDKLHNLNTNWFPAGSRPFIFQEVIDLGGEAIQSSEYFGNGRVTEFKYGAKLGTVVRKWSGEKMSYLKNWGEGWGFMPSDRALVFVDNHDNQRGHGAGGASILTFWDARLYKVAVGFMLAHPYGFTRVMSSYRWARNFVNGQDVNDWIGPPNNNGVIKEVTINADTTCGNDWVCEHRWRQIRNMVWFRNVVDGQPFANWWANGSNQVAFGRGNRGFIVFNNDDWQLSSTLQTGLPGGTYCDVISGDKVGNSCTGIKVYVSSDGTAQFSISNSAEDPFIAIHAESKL
Experimental: The enzyme activity assay, […], was established by Homoki and co-workers and already used by the authors to evaluate the inhibitory strength of different phenolic structures. To enable the evaluation of the result obtained in the present study compared to the non-anthocyanin phenolics investigated previously, the assay conditions were identical. In short, to 12 different GalG2CNP concentrations ([S] = 0−2000 µM) in MES^+ buffer, inhibitor [I] and 50 µL enzyme solution (c = 1.51 units/~100 pM, on the basis of supplier information) were mixed in a microtiter plate (Greiner BioOne, Frickenhausen, Germany; transparent, F-bottom). For blanks, the enzyme solution was substituted with MES^+ buffer. The final volume per well was 250 µL. To quantify the reaction product, a linear calibration with eight different CNP concentrations in the range of 0−35 µM was performed for each plate. Dilutions of the anthocyanin stock solutions (0.1% HCl) were equilibrated at pH 6.1 for one hour. Final inhibitor concentrations were limited due to its strong absorption at 405 nm to 12.5, 25, and 50 µM. For each anthocyanin structure, the assay was conducted on two to three different days with freshly prepared stocks of substrate, enzyme, and inhibitor.
In addition to the Michaelis Menten constant (Km) and the maximal conversion rate (vmax) values (Table S1), inhibition constants (Kic, Kiu) were calculated by fitting the data by two approaches: (i) According to the mixed inhibition equation (Equation (4)) or competitive inhibition equation (Equation (5)), applying an optimal global fit containing data from all inhibitor concentrations including the control ([I] = 0 µM); and (ii) by an independent fit according to the Michaelis Menten equation (Equation (6)), providing the apparent values Km^app and Vmax^app (Table S2) for each inhibitor concentration, which were then used to calculate the inhibition constants (Equations (7) and (8)). (4) v0= vmax/Km/[S] · (1+[I]/Kic)+(1+[I]/Kiu), (5) v0=vmax/Km/[S] · ( 1+[I]/Kic)+1, (6) v0=vmax · [S]/Km+[S], (7) Kic=vmax^app/Km^app · [I]/vmax/Km−vmax^app/Km^app, (8) Kiu=vmax^app · [I]/vmax− vmax^app.
The IC50 values of the different anthocyanins were derived from the inhibition constants for different substrate concentrations by the Cheng−Prusoff equation (Equation (9)). (9) IC50=(Km+[S])/Km/Kic+[S]/Kiu.
• KM: Michaelis Menten constant (µM) • vmax: Maximal conversion rate of the uninhibited reaction (µM/min) • v0: Observed conversion rate at given substrate and inhibitor concentration (µM/min) • [S]: Substrate concentration • [I]: Inhibitor concentration • Kic: Inhibitor constant, reflecting the competitive inhibition in the equation (µM) • Kiu: Inhibitor constant, reflecting the uncompetitive inhibition in the equation (µM) • vmax^app: Calculated maximal conversion rate, when the Michaelis Menten equation is used on an inhibited curve (µM/min) • Km^app: Calculated Michaelis Menten constant, when the Michaelis Menten equation is used on an inhibited curve (µM) • IC50: Half maximal inhibitory concentration (inhibitor concentration needed to achieve 50% inhibition; it is dependent on the substrate concentration) (µM)
For data analyses and calculations, Origin 2018b (OriginLab, software extension Enzyme Kinetics) was used. The Levenberg−Marquardt algorithm procedure was chosen for iteration. All assays were performed in two independent replicates at different dates. Values are expressed in arithmetic means ± average deviation (AD). The statistical significance and differences between groups were analyzed by one-way analysis of variance (ANOVA), followed by Tukey’s test. Differences were considered significant when p < 0.05. Data were processed using Microsoft Excel® (2010).

[2] = biological target: porcine pancreatic α-amylase; design: method as in doi:10.1016/j.jff.2015.11.042; conditions: cited from earlier work

## COc1cc(-c2[o+]c3cc(O)cc(O)c3cc2O[C@@H]2O[C@H](CO)[C@@H](O)[C@H](O)[C@H]2O)ccc1O [Peo-glc, peonidin-3-glucoside]
[1]; (i) Kic and Kiu by global fit, [S] 10 µM
  IC50: 112 ± 40 µM
[1]; (i) Kic and Kiu by global fit, [S] 100 µM
  IC50: 134 ± 46 µM
[1]; (i) Kic and Kiu by global fit, [S] 10^3 µM
  IC50: 209 ± 65 µM
[1]; (i) Kic and Kiu by global fit, [S] 10^6 µM
  IC50: 258 ± 78 µM
[1]; (i) global fit, Equation (4)
  Kic/Kiu: 0.42 ± 0.23 ^a
[1]; (i) global fit, mixed inhibition Equation (4), read-out: Kic
  Ki: 109 ± 39 µM
[1]; (i) global fit, mixed inhibition Equation (4), read-out: Kiu
  Ki: 258 ± 78 µM
[1]; (ii) Kic and Kiu by independent fit, [S] 10 µM
  IC50: 121 ± 42 µM
[1]; (ii) Kic and Kiu by independent fit, [S] 100 µM
  IC50: 142 ± 49 µM
[1]; (ii) Kic and Kiu by independent fit, [S] 10^3 µM
  IC50: 212 ± 69 µM
[1]; (ii) Kic and Kiu by independent fit, [S] 10^6 µM
  IC50: 254 ± 82 µM
[1]; (ii) independent Michaelis Menten fit (Equation (6)), calculation by Equation (7), read-out: Kic
  Ki: 118 ± 42 µM
[1]; (ii) independent Michaelis Menten fit (Equation (6)), calculation by Equation (8), read-out: Kiu
  Ki: 254 ± 82 µM
[1]; (ii) independent fit, Equations (7) and (8)
  Kic/Kiu: 0.43 ± 0.04 **^a
[1]; inhibitor c 25 µM
  Kmapp: 242 ± 8 µM
  vmaxapp: 0,74 ± 0,14 µM/min
[1]; inhibitor c 50 µM
  Kmapp: 256 ± 7 µM
  vmaxapp: 0,65 ± 0,05 µM/min
[1]; inhibitor c 12,5 µM
  Kmapp: 211 ± 15 µM
  vmaxapp: 0,77 ± 0,12 µM/min
[1]; from apparent values, inhibitor c 25 µM, read-out: Kic
  Ki: 107 ± 15 µM
[1]; from apparent values, inhibitor c 25 µM, read-out: Kiu
  Ki: 250 µM
[1]; from apparent values, inhibitor c 50 µM, read-out: Kic
  Ki: 112 ± 45 µM
[1]; from apparent values, inhibitor c 50 µM, read-out: Kiu
  Ki: 262 ± 92 µM
[1]; from apparent values, inhibitor c 12,5 µM, read-out: Kic
  Ki: 180 µM
[1]; from apparent values, inhibitor c 12,5 µM, read-out: Kiu
  Ki: 360 µM
[1]; mean over inhibitor c 12,5, 25, 50 µM (Supplementary 2), read-out: Kic mean ± SD
  Ki: 133 ± 40 µM
[1]; mean over inhibitor c 12,5, 25, 50 µM (Supplementary 2), read-out: Kiu mean ± SD
  Ki: 290 ± 61 µM
[2]
  IC50: 75 ± 7 µM
  inhibition type: competitive inhibition type
